PMC8759731, “Design, synthesis, and evaluation of novel coumarin-dithiocarbamate derivatives (IDs) as anti-colorectal cancer agents” (Journal of Enzyme Inhibition and Medicinal Chemistry, 2021)

Assays:
SW480 cells [1] = experiment: Colony formation, SW480 cells; type: cell-based, human; settings: 0 to 32 μM for 24 h, then 10 days
Protocol: SW620 and SW480 cells were seeded in 6-well plates (1000 cells per well) and cultured in RPMI-1640 medium containing 10% FBS overnight. After the cells treatment with DMSO or compound ID-11 (4, 8, 16, and 32 μM) for 24 h, the culture medium was replaced by fresh RPMI-1640 medium (containing 10% FBS) and continue culturing for another 10 days. Then the cells were washed with PBS and fixed with methanol for 15 min and stained with 0.1% crystal violet for another 30 min. Finally, the cells were washed with running water, air-dried and visualised by photographing.

SW620 cells [2] = experiment: Western blot assay, SW620 cells; type: cell-based, human; settings: 24 h
Protocol: (§1) Cells were cultured in 6-well plates at a density of 40,000 cells per well overnight, and then exposed to selected compounds at different concentrations for 24 h. Subsequently, the cells were lysed in lysate buffer containing 50 mM Tris-HCl (PH 6.8), 2% SDS, 0.1% bromophenol blue, 1.5% DTT, 10% glycerol. The total protein extracts were boiled, sonicated, separated by 10–12% SDS-PAGE gels and transferred to polyvinylidene fluoride (PVDF) membranes. Then the membranes were blocked with 5% non-fat milk at room temperature for 1 h and incubated with primary antibodies at 4 °C overnight. After that, membranes were washed with 1× TBST for three times and incubated with secondary antibody at room temperature for 2 h. Finally, after washing with 1× TBST for three times, the bolts were visualised by an enhanced chemiluminescence kit (Beyotime, China) using the Amersham Imager 600 system (GE Healthcare Life Science, Shanghai, China).

SW480 cells [3] = experiment: Quantitative RT-PCR, SW480 cells; type: cell-based, human; settings: SW480, 0 to 24 μM, 24 h, qRT-PCR
Protocol: Cells (50,000 cells per well) incubated in 6-well plates were treated with compound ID-11 for 24 h. After that, the total RNA was extracted using Total RNA Extraction Reagent (Invitrogen, USA) according to the manufacturer’s instructions and quantified with NanoDrop 2000 (Nanodrop, USA). Then the cDNA was synthesized from total RNA using High-Capacity cDNA Reverse Transcription Kit (Applied Biosystems, USA). The SYBR Green Master reagents (Applied Biosystems, USA) was used to determine the relative expression of mRNA level by quantitative real-time PCR (qRT-PCR). The primer sequences are shown below.

SW480 cells [4] = experiment: Western blot assay, SW480 cells; type: cell-based, human; settings: 24 h
Protocol: as §1

SW620 cells [5] = experiment: MTS cell viability assay, SW620 cells; type: cell-based; settings: Homo sapiens
From the text: (§2) Human colorectal cancer cell lines including RKO, SW620 and SW480 were purchased from Chinese Academy of Sciences, a typical cell library culture preservation committee (Shanghai, China). Normal human colon epithelial cell line NCM460 was purchased from ATCC (Washington, DC, USA). RPMI-1640 medium (12633020), foetal bovine serum (FBS, 26170043), penicillin-streptomycin (10378016) and phosphate buffered saline (PBS, 70011044) were purchased from Gibco (Eggenstein, Germany). 5-Fluorouracil (5-FU, E0201010050, purity ≥98%) was purchased from Energy Chemical (Shanghai, China). Dimethyl sulfoxide (DMSO, 41639) was obtained from Sigma-Aldrich (St. Louis, MO). 3–(4,5-dimethylthiazol-2-yl)-5–(3-carboxymethoxyphenyl)-2–(4-sulfophenyl)-2H-tetrazolium (MTS, G1111) was purchased from Promega (Madison, WI, USA). All cell lines were cultured in RPMI-1640 medium supplemented with 10% FBS, penicillin (100 units/mL) and streptomycin ([…]) at 37 °C in a humidified atmosphere containing 5% CO2.
(§3) Cell viability was measured via MTS assay. RKO, SW620, SW480 and NCM460 cells were seeded in 96-well plates at a density of 5000 cells per well for 24 h. After treatment with the test compounds at indicated concentration for another 48 h or 72 h at 37 °C, MTS solution was added to each well and incubated for another 30 min at 37 °C. Then, the absorbance at 490 nm was measured by a BioTek Synergy H4 microplate Reader (Vermont, USA). The IC50 values were calculated with Graphpad 7.0 software packages.

RKO cells = experiment: MTS cell viability assay, RKO cells; type: cell-based; settings: Homo sapiens, 72 h
From the text: as §2, §3

SW620 cells [6] = experiment: Cell cycle analysis (PI, flow cytometry), SW620 cells; type: cell-based, human; settings: SW620, 16 μM, 24 h
Protocol: Cells were seeded in 6-well plates (40,000 cells per well) and cultured in RPMI-1640 medium containing 10% FBS overnight. Then the cells were exposed to DMSO or compound ID-11 (8 or 16 μM) for 24 h. After that, cells were collected, washed with cold PBS for twice and fixed in 75% ethanol overnight at 4 °C. Subsequently, ethanol was removed and suspended in PBS for twice, and then RNase A and propidium iodide (PI) (Multi Sciences, Hangzhou, China) was added and keep in the darkness for 30 min. Finally, the percentages of cells in different cell cycle phases were measured using a FACS Calibur flow cytometer (Bectone Dickinson, San Jose, CA, USA).

BRD4 (BD1) = biological target: T1, BRD4 (BD1) (Homo sapiens, UniProt O60885); experiment: HTRF assay BRD4 (BD1); type: binding
T1 construct: purchased Reaction Biology Corp. RD-11-157
Protocol: In brief, compounds were serially diluted in Echo plate according to the plate map and DMSO’s final fraction is 0.1%. Then, transferring compounds and DMSO to 384-well assay plate by Echo. After that, 2× Protein and Peptide Mix was added to the assay plate and 2× Detection Mix was then added to assay plate and shook for 30 s. After incubating the plate at room temperature for 1.5 h, the HTRF signals (Excitation wavelength at 340 nm, Emission wavelength at 615 & 665 nm) was read on EnVision (PerkinElmer, UK). (+)-JQ1 (BPS Bioscience, Cat. No. 27402) was used as a positive control. BRD4-1 (RD-11–157) and BRD4-2 (RD-11–158) were purchased from Reaction Biology Corp. (PENN, USA). For Curve fitting, the inhibition values was calculated in Excel using Equation (1): Inhibition %=(Max-Signal)/(Max-Min)*100, and the IC50 values was calculated in XL-Fit using Equation (2): Y = Bottom + (Top-Bottom)/(1+(IC50/X)[…]), Y is %inhibition and X is compound concentration.

O=c1ccc2cc(CSC(=S)n3ccnc3)ccc2o1 [ID-11, (2-Oxo-2H-chromen-6-yl)methyl 1H-imidazole-1-carbodithioate]
melting point: 139.1 to 140 °C | colony formation (SW480 cells [1]): effectively inhibited | expression level of cdc2 (SW620 cells [2]; SW620, 0 to 16 μM): decreased in a concentration-dependent way | expression level of cleaved PARP (SW620 cells [2]; SW620, 0 to 16 μM): increased in a dose-dependent way | expression level of cyclin B1 (SW620 cells [2]; SW620, 0 to 16 μM): decreased in a concentration-dependent way | protein expression level of Bcl-2 (SW620 cells [2]; SW620, 0 to 24 μM): decreased | protein expression level of c-Myc (SW620 cells [2]; SW620, 0 to 24 μM): decreased | mRNA relative expression level of Bcl-2 (SW480 cells [3]): also decreased in a concentration dependent way | mRNA relative expression level of c-Myc (SW480 cells [3]): also decreased in a concentration dependent way | expression level of cdc2 (SW480 cells [4]; SW480, 0 to 16 μM): decreased in a concentration-dependent way | expression level of cleaved PARP (SW480 cells [4]; SW480, 0 to 16 μM): increased in a dose-dependent way | expression level of cyclin B1 (SW480 cells [4]; SW480, 0 to 16 μM): decreased in a concentration-dependent way | protein expression level of Bcl-2 (SW480 cells [4]; SW480, 0 to 24 μM): decreased | protein expression level of c-Myc (SW480 cells [4]; SW480, 0 to 24 μM): decreased | viability at 10 µM (SW620 cells [5]; SW-620, 10 μM, 72 h): 43.9% | IC50 (SW620 cells [5]; SW-620, 72 h): 8.81 µM | viability at 10 µM (RKO cells; 10 μM): 29.4% | IC50 (RKO cells): 6.4 µM | cell cycle distribution G2 (G2/M phase) (SW620 cells [6]): 33.13% | inhibition at 10 µM (BRD4 (BD1); 10 μM, read-out: Inhibitory rate at 10 μM, BRD4 (BD1)): 68.9% | IC50 (BRD4 (BD1); mean ± SD of three independent experiments): 7.8 ± 2.2 µM
